From article PMC6021035, “Insights into biological activity of ureidoamides with primaquine and amino acid moieties” (Journal of Enzyme Inhibition and Medicinal Chemistry, 2018)
Values after ≈ are worked out from the molar mass of the structure shown.

How the values were obtained:
[1] = Interaction with 1,1-diphenyl-2-picrylhydrazyl (DPPH); conditions: 100 μΜ
Protocol: To a solution of DPPH in absolute ethanol, an appropriate volume of the tested compound solution (0.1 mM final concentration) dissolved in DMSO was added. Absorbance was recorded at 517 nm after 20 and 60 min at room temperature (Lambda 20 double beam spectrophotometer, Perkin-Elmer, UK). Experiments were repeated at least in triplicate and the standard deviation of absorbance was less than 10% of the mean[10]. NDGA was used under the same experimental conditions as a reference compound.

Candida kefyr ATCC 2512 [2] = assay: MIC determination (broth micro-dilution); assay type: cell-based; conditions: Kluyveromyces marxianus, ATCC2512
Protocol: (§1) Before analysis, compounds 5a–f were dissolved in 96% ethanol in a concentration of 2 mg/ml as stock solutions. Inoculums were prepared with fresh cultures of microbial strains, cultured on tryptic-soy agar or Sabouraud 2% (m/v) dextrose agar for 18 h (48–72 h for fungi) at 30 °C with physiological saline containing approximately […]. Inoculum density (0.5 McFarland units) was adjusted with a bio Mériex (France) densitometer. Minimum inhibitory concentration (MIC) was determined by the twofold micro-dilution method in Mu¨ller–Hinton broth for bacterial strains and RPMI 1640 + 2% m/v dextrose for fungi according to the EUCAST recommendations in a sterile 96-well flat-bottom plastic tissue culture plate. MIC was determined using a linear regression curve after incubation of compounds and reading the optical density at 570 nm using an iEMS microplate reader. […] All tests were performed in triplicate and expressed as the mean.

[3] = system: Candida albicans ATCC 90028; assay: MIC determination (broth micro-dilution); assay type: cell-based; conditions: ATCC90028
Protocol: as §1

[4] = system: Candida albicans ATCC 10231; assay: MIC determination (broth micro-dilution); assay type: cell-based; conditions: ATCC10231
Protocol: as §1

[5] = system: Aspergillus niger ATCC 16404; assay: MIC determination (broth micro-dilution); assay type: cell-based; conditions: ATCC16404
Protocol: as §1

[6] = system: Issatchenkia orientalis Kudrjanzev ATCC 6258; assay: MIC determination (broth micro-dilution); assay type: cell-based; conditions: Pichia kudriavzevii, ATCC6258
Protocol: as §1

[7] = system: Candida tropicalis ATCC 750; assay: MIC determination (broth micro-dilution); assay type: cell-based; conditions: ATCC750
Protocol: as §1

[8] = system: Candida krusei ATCC 14243; assay: MIC determination (broth micro-dilution); assay type: cell-based; conditions: Pichia kudriavzevii, ATCC14243
Protocol: as §1

Candida kefyr ATCC 2512 [9] = assay: Minimum biofilm eradication assay; assay type: cell-based; conditions: Kluyveromyces marxianus, ATCC2512, 48 h, read-out: MBEC
Protocol: (§2) We tested the susceptibility of different bacterial and yeast strains to compounds 5a–f by determining the minimum biofilm eradication concentration (MBEC). The test was performed in a sterile 96-well flat-bottom plastic tissue culture plate (TPP, Switzerland). Each well was filled with 100 µl of bacterial (10^7 CFUs/ml) or yeast (5 × 10^6 CFUs/ml) suspension. When the possibility of inhibition of yeast biofilm formation was tested, the wells were pre-treated with FBS (250 µl per well). Negative controls contained broth only. Positive controls were performed using standard antibacterial and antifungal drugs gentamycin and amphotericin B, respectively. The plates were covered and incubated aerobically for 24 h (bacteria) or 48 h (yeast) at 37 °C. Following the incubation period, each well was aspirated and washed three times with 250 µl of PBS and vigorously shaken in order to remove all non-adherent bacteria/yeast. The remaining attached cells were fixed with methanol (15 min) and the plates were left to dry overnight. The formed biofilm was stained with crystal violet (1%, 5 min). Excess stain was rinsed by placing the plate under running tap water and the plates were left to dry for 24 h. Adherent cells were resolubilized with acetic acid (33%, v/v). The optical density of each well was measured at 570 nm using a Multiscan plate reader. The MBEC value represents the lowest compound dilution at which microorganisms fail to grow.

[10] = system: Candida albicans ATCC 90028; assay: Minimum biofilm eradication assay; assay type: cell-based; conditions: ATCC90028, 48 h, read-out: MBEC
Protocol: as §2

[11] = system: Candida albicans ATCC 10231; assay: Minimum biofilm eradication assay; assay type: cell-based; conditions: ATCC10231, 48 h, read-out: MBEC
Protocol: as §2

[12] = system: Candida tropicalis ATCC 750; assay: Minimum biofilm eradication assay; assay type: cell-based; conditions: ATCC750, 48 h, read-out: MBEC
Protocol: as §2

[13] = system: Candida krusei ATCC 14243; assay: Minimum biofilm eradication assay; assay type: cell-based; conditions: Pichia kudriavzevii, ATCC14243, 48 h, read-out: MBEC
Protocol: as §2

[14] = system: Escherichia coli ATCC 8739; assay: MIC determination (broth micro-dilution); assay type: cell-based; conditions: ATCC8739
Protocol: as §1

[15] = system: Escherichia coli ATCC 10536; assay: MIC determination (broth micro-dilution); assay type: cell-based; conditions: ATCC10536
Protocol: as §1

[16] = system: Kocuria rhizophila ATCC 9341; assay: MIC determination (broth micro-dilution); assay type: cell-based; conditions: ATCC9341
Protocol: as §1

[17] = system: Burkholderia caepacia ATCC 25416; assay: MIC determination (broth micro-dilution); assay type: cell-based; conditions: ATCC25416
Protocol: as §1

[18] = system: Enterococcus faecalis ATCC 29212; assay: MIC determination (broth micro-dilution); assay type: cell-based; conditions: ATCC29212
Protocol: as §1

[19] = system: Candida parapsylosis ATCC 22019; assay: MIC determination (broth micro-dilution); assay type: cell-based; conditions: ATCC22019
Protocol: as §1

[20] = system: Staphylococcus aureus ATCC 25923; assay: MIC determination (broth micro-dilution); assay type: cell-based; conditions: ATCC25923
Protocol: as §1

[21] = system: Pseudomonas aeruginosa ATCC 27853; assay: MIC determination (broth micro-dilution); assay type: cell-based; conditions: ATCC27853
Protocol: as §1

[22] = system: Staphylococcus aureus ATCC 6538; assay: MIC determination (broth micro-dilution); assay type: cell-based; conditions: ATCC6538
Protocol: as §1

[23] = system: Enterococcus hyrae ATCC 8043; assay: MIC determination (broth micro-dilution); assay type: cell-based; conditions: ATCC8043
Protocol: as §1

[24] = system: Staphylococcus aureus ATCC 25213; assay: MIC determination (broth micro-dilution); assay type: cell-based; conditions: ATCC25213
Protocol: as §1

[25] = system: Bacillus cereus ATCC 11778; assay: MIC determination (broth micro-dilution); assay type: cell-based; conditions: ATCC11778
Protocol: as §1

[26] = system: Pseudomonas aeruginosa ATCC 9027; assay: MIC determination (broth micro-dilution); assay type: cell-based; conditions: ATCC9027
Protocol: as §1

[27] = system: Bacillus subtilis ATCC 6633; assay: MIC determination (broth micro-dilution); assay type: cell-based; conditions: ATCC6633
Protocol: as §1

E. coli (both strains) = assay: Minimum biofilm eradication assay, E. coli both strains; assay type: cell-based, Escherichia coli
Protocol: as §2, with “The MBEC value represents the lowest compound dilution at which microorganisms fail to grow.” left out

[28] = system: Escherichia coli ATCC 8739; assay: Minimum biofilm eradication assay; assay type: cell-based
Protocol: as §2

[29] = system: Escherichia coli ATCC 10536; assay: Minimum biofilm eradication assay; assay type: cell-based
Protocol: as §2

[30] = system: Enterococcus faecalis ATCC 29212; assay: Minimum biofilm eradication assay; assay type: cell-based
Protocol: as §2

[31] = system: Candida parapsylosis ATCC 22019; assay: Minimum biofilm eradication assay; assay type: cell-based
Protocol: as §2

[32] = system: Pseudomonas aeruginosa ATCC 27853; assay: Minimum biofilm eradication assay; assay type: cell-based
Protocol: as §2

[33] = system: Staphylococcus aureus ATCC 6538; assay: Minimum biofilm eradication assay; assay type: cell-based
Protocol: as §2

[34] = system: Staphylococcus aureus ATCC 25213; assay: Minimum biofilm eradication assay; assay type: cell-based
Protocol: as §2

[35] = system: Pseudomonas aeruginosa ATCC 9027; assay: Minimum biofilm eradication assay; assay type: cell-based
Protocol: as §2

[36] = Inhibition of linoleic acid peroxidation (LP), AAPH-initiated; parameters: tested at 100 µM; conditions: 100 μΜ, 37 °C
Protocol: To initiate lipid peroxidation, the free radical AAPH was used[10]. The final solution in the UV cuvette consisted of 10 µl sodium linoleate solution (c = 16 mM) and 0.93 ml phosphate buffer pH 7.4 (c = 50 mM). Afterwards, 10 µl of the tested compound solution in DMSO (final concentration 0.1 mM) and 50 µl of AAPH solution (c = 40 mM) were added. The experiment was performed at 37 °C under air. Oxidation of linoleic acid sodium salt was monitored at 234 nm. The assay was repeated at least in triplicate and the standard deviation of absorbance was less than 10% of the mean. Trolox was used under the same experimental conditions as a reference compound.

CC(Cc1ccc(O)c(O)c1)C(C)Cc1ccc(O)c(O)c1 (centres unmarked) [NDGA, nordihydroguaiaretic acid, reference compound]
DPPH-reducing ability 20 min ([1]; 20 min): 83.0 ± 1.0%
DPPH-reducing ability 60 min ([1]; 60 min): 91.0 ± 1.7%

C[C@@H]1[C@H](O)[C@@H](C)/C=C/C=C/C=C/C=C/C=C/C=C/C=C/[C@H](O[C@@H]2O[C@H](C)[C@@H](O)[C@H](N)[C@@H]2O)C[C@@H]2O[C@](O)(C[C@@H](O)C[C@@H](O)[C@H](O)CC[C@@H](O)C[C@@H](O)CC(=O)O[C@H]1C)C[C@H](O)[C@H]2C(=O)O [Amph, amphotericin B, reference compound]
MIC (Candida kefyr ATCC 2512 [2]): 0.5 µg/mL (≈ 0.541 µM)
MIC [3]: 0.5 µg/mL (≈ 0.541 µM)
MIC [4]: 0.5 µg/mL (≈ 0.541 µM)
MIC [5]: 0.5 µg/mL (≈ 0.541 µM)
MIC [6]: 0.5 µg/mL (≈ 0.541 µM)
MIC [7]: 0.5 µg/mL (≈ 0.541 µM)
MIC [8]: 0.5 µg/mL (≈ 0.541 µM)
minimal effective concentration (Candida kefyr ATCC 2512 [9]): 25 µg/mL
minimal effective concentration [10]: 25 µg/mL
minimal effective concentration [11]: 25 µg/mL
minimal effective concentration [12]: 50 µg/mL
minimal effective concentration [13]: 50 µg/mL

CN(C)[C@@H]1C(O)=C(C(N)=O)C(=O)[C@@]2(O)C(O)=C3C(=O)c4c(O)cccc4[C@@](C)(O)[C@H]3C[C@@H]12 [TC, tetracycline, reference compound]
MIC [14]: 2.5 µg/mL (≈ 5.63 µM)
MIC [15]: 2.5 µg/mL (≈ 5.63 µM)
MIC [16]: 0.63 µg/mL (≈ 1.42 µM)
MIC [17]: 3 µg/mL (≈ 6.75 µM)
MIC [18]: 0.31 µg/mL (≈ 0.698 µM)
MIC [19]: 6.13 µg/mL (≈ 13.8 µM)
MIC [20]: 0.31 µg/mL (≈ 0.698 µM)
MIC [21]: 3 µg/mL (≈ 6.75 µM)
MIC [22]: 0.31 µg/mL (≈ 0.698 µM)
MIC [23]: 0.63 µg/mL (≈ 1.42 µM)
MIC [24]: 0.16 µg/mL (≈ 0.36 µM)
MIC [25]: 0.31 µg/mL (≈ 0.698 µM)
MIC [26]: 3 µg/mL (≈ 6.75 µM)
MIC [27]: 0.31 µg/mL (≈ 0.698 µM)

gentamycin [reference compound]
MBEC (E. coli (both strains)): 25 µg/mL
MBEC [28]: 25 µg/mL
MBEC [29]: 25 µg/mL
MBEC [30]: 50 µg/mL
MBEC [31]: 50 µg/mL
MBEC [32]: 50 µg/mL
MBEC [33]: 12.5 µg/mL
MBEC [34]: 12.5 µg/mL
MBEC [35]: 50 µg/mL

Cc1c(C)c2c(c(C)c1O)CCC(C)(C(=O)O)O2 (centres unmarked) [Trolox, 6-hydroxy-2,5,7,8-tetramethylchroman-2-carboxylic acid, reference compound]
LP inhibition (%) ± SD [36]: 96 ± 2.0%
